Assay results: patent publication US8158623B2, “Heptacyclic compounds and the pharmaceutical uses thereof for preventing and treating diabetes and metabolic syndrome” (Shanghai Institute of Materia Medica Chinese Academy of …, priority 2007, dated 2012)

Experiments:
ob/ob mice [1] = experiment: Hypoglycemic effect of the combination of F7 with Glibenclamide; format: in vivo; conditions: Glibenclamide 25 mg/kg oral, with or without F7 50 mg/kg oral pretreatment for 10 days
Procedure: (§1) Genetic spontaneous diabetes ob/ob mice were purchased from Jackson (USA), and maintained in a SPF facility (temperature: 22-24° C., humidity: 45-80%, illumination: 150-300 Lx, 12/12-hour light/dark cycle). Fasting blood glucose was determined daily for 3 days continuously when the mice were 7 weeks old. The mice were grouped into the pretreatment group of Compound F7 and non-pretreatment group (16 animals per group) according to the results determined. The groups were administered orally with compound F7 (50 mg/kg) or a solution of 0.1% Tween 80 respectively, once daily for 10 days. The pretreatment group and the non-pretreatment group were divided into two subsets (8 animals per subset) respectively, and subcutaneously injected with insulin (0.6 U/kg) or orally administered with Glibenclamide (25 mg/kg) respectively. Then, blood glucose levels were measured at different time points and the percentage of change in blood glucose level was calculated.

ob/ob mice [2] = experiment: Hypoglycemic effect of the combination of F7 with insulin; format: in vivo; conditions: insulin 0.6 U/kg s.c., with or without F7 50 mg/kg oral pretreatment for 10 days
Procedure: as §1

Molecule: COc1ccc(Cl)cc1C(=O)NCCc1ccc(S(=O)(=O)NC(=O)NC2CCCCC2)cc1 [Glibenclamide]
- The percentage of change in blood glucose level (ob/ob mice [1]; 1 h): 90.2 ± 7.3%
- The percentage of change in blood glucose level (ob/ob mice [1]; 2 h): 76.7 ± 10.2%
- The percentage of change in blood glucose level (ob/ob mice [1]; 3 h): 68.0 ± 7.3%

Molecule: Insulin
- The percentage of change in blood glucose level (ob/ob mice [2]; 15 minutes): 113.9 ± 8.3%
- The percentage of change in blood glucose level (ob/ob mice [2]; 40 minutes): 96.3 ± 18.0%
- The percentage of change in blood glucose level (ob/ob mice [2]; 90 minutes): 90.6 ± 14.7%
- The percentage of change in blood glucose level (ob/ob mice [2]; 120 minutes): 101.6 ± 11.2%
